Test results reported in patent publication US8227419B2, “Method of treating conditions associated with airway tissue remodeling” (CRC For Asthma and Airways Ltd., priority 2006, dated 2012).
“Also recorded” adds a separate entry of the source. Where a SMILES comes first, the peptide text is derived from it.

Assays:
[1] = system: asthmatic smooth muscle cells; assay: MTT proliferation assay, asthmatic airway smooth muscle cells; type: cell-based, human; conditions: peptide 4.5 μM; all timepoints of FIG. 11; n=4 ASM cell lines
Source text: Human airway smooth muscle cells were isolated by microdissection from bronchial tissue obtained from either bronchoscopy, lung tissue obtained from lung transplants, or lung tissue resected at thoracotomy. Ethical approval for the use of the lung tissue for/in vitro/experimentation was granted by the Human Ethics Committee of the University of Sydney, and the Sydney South West Area Health Service, and informed consent was received from all subjects. Asthmatic ASM cells were isolated from airway biopsies, and all but one of the non asthmatic derived ASM cells were isolated from either resected lung tissue, or lung transplantation (both donor and recipient) This isolation and culture of ASM cells was carried out according to a method described by Johnson et al. 1995. Briefly, with the use of a dissecting microscope, sterile equipment and aseptic technique, bronchial airways were dissected from the surrounding parenchyma and cut longitudinally. The bronchi were then briefly dipped in 70% (v/v) ethanol in water to kill any surface organisms. The bronchi were then washed in sterile Hanks balanced salt solution three times and pinned down in a sterile Petri dish with the epithelial surface facing upwards. […] Proliferation was assessed using an MTT assay (SIGMA-aldrich, Missouri, USA) at day 3, 7 and 9. […] The specific absorption of each well was measured at 690 nm (reference) and 570 nm.

[2] = system: primary lung endothelial cells; assay: MTT proliferation assay, primary lung endothelial cells; type: cell-based, human; conditions: peptide 4.5 μM; day 3, 7 and 9; n=5 cell lines
Protocol: Human pulmonary endothelial cells were isolated from bronchial tissue obtained during lung transplantation. Blood vessels were dissected free from surrounding tissue and cut longitudinally and then cut into approximately 5 mm segments. Blood vessel segments were then placed in a 15 ml falcon tube containing 10 ml of digestive buffer, (1 mg (250 U)/ml type 2 collagenase, 1 U/ml dispase, 10 mg/ml BSA) the tube was placed in the incubator for 10 minutes and agitated every 2 minutes. Digestive mixture was changed every 10 minutes for a total of 50 minutes. 1/10 volume of FBS was added to the supernantants that were removed every 10 minutes. Supernatants were then centrifuged at 200 g for 5 minutes. Supernantants were removed and cells were washed with culture medium, this contained 10% FBS, 10 μg/ml endothelial cell growth supplement, 20 U/ml heparin and 2% antibiotics, and centrifuged at 200 g for 5 minutes. Supernantants were removed and cells were placed in 75 cm^2 vented tissue culture flasks (Falcon Labware) containing 10 ml of culture medium, and incubated for 1 hour at 37° C. […] Proliferation was assessed using an MTT assay (SIGMA-aldrich, Missouri, USA) at day 3, 7 and 9. […] The specific absorption of each well was measured at 690 nm (reference) and 570 nm.

Compound: CSCC[C@H](NC(=O)[C@@H](NC(=O)[C@@H](NC(=O)[C@H](Cc1ccccc1)NC(=O)[C@H](CCCNC(=N)N)NC(=O)[C@H](CCC(N)=O)NC(=O)[C@@H](N)CC(C)C)[C@@H](C)O)[C@@H](C)O)C(=O)N1CCC[C@H]1C(=O)N[C@@H](Cc1ccccc1)C(=O)N[C@@H](CC(C)C)C(=O)N[C@@H](Cc1ccccc1)C(=O)N[C@@H](CS)C(=O)N[C@@H](CC(N)=O)C(=O)N[C@H](C(=O)N[C@@H](CC(N)=O)C(=O)N[C@@H](CC(=O)O)C(=O)N[C@H](C(=O)N[C@@H](CS)C(=O)N[C@@H](CC(N)=O)C(=O)N[C@@H](Cc1ccccc1)C(=O)O)C(C)C)C(C)C [T3] (H-LQRFTTMPFLFCNVNDVCNF-OH; N-terminus and C-terminus assumed)
- inhibition of FBS-induced proliferation of asthmatic smooth muscle cells [1]: Neither T3 nor T7 peptides were shown to be able to inhibit; also recorded: not inhibited
- inhibition of proliferation of primary lung endothelial cells [2]: able to inhibit the proliferation; also recorded: significantly inhibited by the presence of T3 peptide at all timepoints

Compound: CSCC[C@H](NC(=O)[C@@H](N)[C@@H](C)O)C(=O)N1CCC[C@H]1C(=O)N[C@@H](Cc1ccccc1)C(=O)N[C@@H](CC(C)C)C(=O)N[C@@H](Cc1ccccc1)C(=O)N[C@@H](CS)C(=O)N[C@@H](CC(N)=O)C(=O)N[C@H](C(=O)N[C@@H](CC(N)=O)C(=O)N[C@@H](CC(=O)O)C(=O)N[C@H](C(=O)N[C@@H](CS)C(=O)N[C@@H](CC(N)=O)C(=O)N[C@@H](Cc1ccccc1)C(=O)N[C@@H](C)C(=O)N[C@@H](CO)C(=O)N[C@@H](CCCNC(=N)N)C(=O)N[C@@H](CC(N)=O)C(=O)N[C@@H](CC(=O)O)C(=O)N[C@@H](Cc1ccc(O)cc1)C(=O)N[C@@H](CO)C(=O)N[C@@H](Cc1ccc(O)cc1)C(=O)N[C@@H](Cc1c[nH]c2ccccc12)C(=O)N[C@@H](CC(C)C)C(=O)O)C(C)C)C(C)C [T7] (H-TMPFLFCNVNDVCNFASRNDYSYWL-OH; N-terminus and C-terminus assumed)
- inhibition of FBS-induced proliferation of asthmatic smooth muscle cells [1]: Neither T3 nor T7 peptides were shown to be able to inhibit; also recorded: not inhibited
- inhibition of proliferation of primary lung endothelial cells [2]: able to inhibit the proliferation; also recorded: inhibited proliferation at both day 7 and day 9
